Source: US11766470B2, “Manufacture, formulation and dosing of apraglutide” (VectivBio AG, priority 2020, dated 2023)
Values joined by “and” are separate entries in the source; they are usually repeats but may differ in a detail not shown here. Equal entries are not always repeated. Marks after values point to notes of the source that are not given here. Square brackets hold non-standard residues; d marks the D form. Peptide text beside a SMILES is read from it. ξ: configuration not given here. Ile(3ξ) = CCC(C)[C@H](N)C(=O)O; Thr(3ξ) = CC(O)[C@H](N)C(=O)O; Nle = CCCC[C@H](N)C(=O)O

Legend:
[1] = Plasma concentration of apraglutide (LC-MS/MS) in Phase 2 metabolic balance trial (Example 6); assay type: in vivo, human; settings: 5 mg SC once weekly, SBS patients
Procedure: Blood samples for analysis of the plasma concentration of apraglutide and plasma concentration of fasting L-citrulline, a marker of enterocyte mass, were collected at baseline, during first and second injection (pre-dose and at sequential timepoints), four days after first injection and at the end of treatment. Blood sampling for apraglutide pharmacokinetics was also performed after the fourth and last injection covering 96 hours. […] Blood samples for anti-apraglutide antibodies were collected at baseline, at the end of treatment and at the 4-6 weeks follow-up visit. All eight patients tested negative for anti-apraglutide antibodies at baseline.
Apraglutide and L-citrulline were quantified using a validated LC-MS-based method. For a apraglutide, the analytical method used solid-phase extraction purification of the intact apraglutide molecule and its internal standard. The compounds were identified and quantified using reversed-phase HPLC with MS/MS detection using an AB Sciex API 5000 quadrupole mass spectrometer. For samples below the limit of quantification of 5.00 ng/mL, compounds were identified and quantified using reversed-phase UHPLC with MS/MS detection using an AB Sciex API 5500 quadrupole mass spectrometer. For L-citrulline, the analytical method used protein precipitation extraction of L-citrulline and its internal standard. The compounds were identified and quantified using Hilic HPLC with MS/MS detection using an AB Sciex API 5000 quadrupole mass spectrometer.

[2] = system: healthy adult volunteers; test: Safety in multiple dose study in healthy volunteers; assay type: in vivo, human; settings: 1, 5 or 10 mg, 6 weekly SC doses
Procedure: The pharmacokinetic/pharmacodynamic (PK/PD) relationship between apraglutide, a novel long-acting GLP-2 analog in development for short bowel syndrome, and citrulline was evaluated in a randomized, double-blind, parallel arm, placebo-controlled, multiple dose study. 23 healthy adult volunteers received 6 weekly subcutaneous doses of apraglutide (1, 5, or 10 mg) or placebo and were followed for a further 6 weeks after the last dose. Blood collections were controlled for diet, lifestyle, and diurnal effects.

[3] = cited from earlier work
[4] = Multiple dose study in healthy volunteers (Examples 4 and 7), pharmacokinetics of plasma apraglutide, non-compartmental analysis; settings: for CL/F / AUC(0-t) / half-life / Cmax / Tmax / Vd/F: human, plasma
Procedure: 23 healthy adult volunteers received 6 weekly subcutaneous doses of apraglutide (1, 5, or 10 mg) or placebo and were followed for a further 6 weeks after the last dose. Blood collections were controlled for diet, lifestyle, and diurnal effects. […] PK data underwent non-compartmental analysis and PD data were analyzed by ANCOVA.
As with citrulline, a statistical steady-state analysis per dose level was performed for apraglutide using Helmert's approach.

Question: With `CCCC[C@H](NC(=O)[C@H](CCC(=O)O)NC(=O)[C@H](CC(=O)O)NC(=O)[C@H](CO)NC(=O)[C@H](Cc1ccccc1)NC(=O)[C@H](CO)NC(=O)CNC(=O)[C@H](CC(=O)O)NC(=O)CNC(=O)[C@@H](N)Cc1c[nH]cn1)C(=O)N[C@H](Cc1ccccc1)C(=O)N[C@H](C(=O)N[C@H](C(=O)N[C@@H](CC(C)C)C(=O)N[C@@H](CC(=O)O)C(=O)N[C@@H](CC(C)C)C(=O)N[C@@H](CC(C)C)C(=O)N[C@@H](C)C(=O)N[C@@H](C)C(=O)N[C@@H](CCCNC(=N)N)C(=O)N[C@@H](CC(=O)O)C(=O)N[C@@H](Cc1ccccc1)C(=O)N[C@H](C(=O)N[C@@H](CC(N)=O)C(=O)N[C@@H](Cc1c[nH]c2ccccc12)C(=O)N[C@@H](CC(C)C)C(=O)N[C@H](C(=O)N[C@@H](CCC(N)=O)C(=O)N[C@H](C(=O)N[C@@H](CCCCN)C(=O)N[C@H](C(=O)N[C@H](C(=O)N[C@@H](CC(=O)O)C(N)=O)C(C)O)C(C)CC)C(C)O)C(C)CC)C(C)CC)C(C)CC)C(C)O` (stereo partly drawn) [apraglutide, L-histidyl-glycyl-L-aspartyl-glycyl-L-seryl-L-phenylalanyl-L-seryl-L-aspartyl-L-glutamyl-L-norleucyl-D-phenylalanyl-L-threonyl-Lisoleucyl-L-leucyl-L-aspartyl-L-leucyl-L-leucyl-L-alanyl-L-alanyl-L-arginyl-L-aspartyl-L-phenylalanyl-L-isoleucyl-L-asparaginyl-Ltryptophanyl-L-leucyl-L-isoleucyl-L-glutaminyl-L-threonyl-L-lysyl-L-isoleucyl-L-threonyl-Laspartic acid amide] (H-HGDGSFSDE[Nle][dF][Thr(3ξ)][Ile(3ξ)]LDLLAARDF[Ile(3ξ)]NWL[Ile(3ξ)]Q[Thr(3ξ)]K[Ile(3ξ)][Thr(3ξ)]D-NH2) as the compound, how does the Mean clearance [1] read?
Answer: The Mean clearance was 0.9 L/h.

Question: And the Cmax ([1]; human, plasma, read-out: Maximum mean plasma concentration)?
Answer: Its Cmax is 118 ng/mL.

Question: And the half-life ([1]; human, plasma, read-out: Mean elimination half-life (converted))?
Answer: Its half-life is 27 h.

Question: What about the Tmax ([1]; human, plasma, read-out: Mean time to maximum concentration) of the same compound?
Answer: The Tmax was 29.5 h.

Question: What about the “Safety and tolerability in words” value [2] of the same compound?
Answer: Its value is “safe and well-tolerated with no serious AEs”.

Question: And the “Intestinotrophic effect in animal models, in words” value [3]?
Answer: Its value is “promoted increase in intestinal length and weight, villus height and crypt depth”.

Question: What about the “1st Ctrough, arithmetic mean ± SD” value ([4]; 1 mg) of the same compound?
Answer: The value was 0.000 ng/mL and 0.000 ± 0.000 ng/mL.

Question: And the “4th Ctrough, arithmetic mean ± SD” value ([4]; 1 mg)?
Answer: Its value is 0.873 ng/mL.

Question: And the “AUCtau, arithmetic mean ± SD” value ([4]; 1 mg, (first dose))?
Answer: Its value is 35.214 ng·days/mL.

Question: What about the “AUCtau/dose, Arithmetic mean ± standard deviation” value ([4]; 1 mg, (first dose)) of the same compound?
Answer: The value was 0.03037 ± 152.1 ng·days/mL/µg.

Question: What about the “AUCtau/dose, Arithmetic mean ± standard deviation” value ([4]; 1 mg, dose #6) of the same compound?
Answer: Its value is 0.05813 ± 23.1 ng·days/mL/µg.

Question: And the “4th Ctrough, arithmetic mean ± SD” value ([4]; 5 mg)?
Answer: Its value is 10.163 ng/mL.

Question: What about the “5th Ctrough, arithmetic mean ± SD” value ([4]; 5 mg) of the same compound?
Answer: Its value is 7.605 ng/mL.

Question: And the “AUCtau, arithmetic mean ± SD” value ([4]; 5 mg, (first dose))?
Answer: The value was 300.269 ng·days/mL.

Question: And the “AUCtau/dose, Arithmetic mean ± standard deviation” value ([4]; 5 mg, (first dose))?
Answer: The value was 0.05407 ± 47.1 ng·days/mL/µg.

Question: And the “AUCtau/dose, Arithmetic mean ± standard deviation” value ([4]; 5 mg, dose #6)?
Answer: The value was 0.06595 ± 47.2 ng·days/mL/µg.

Question: What about the “Lambda_Z, Arithmetic mean ± standard deviation” value ([4]; 5 mg, dose #6 (N = 4)) of the same compound?
Answer: The value was 0.2384 ± 36.6** 1/d.

Question: And the “Lambda_Z, arithmetic mean ± SD” value ([4]; 5 mg, dose #6 (N = 4))?
Answer: Its value is 0.2508 ± 0.09871** 1/d.

Question: And the “2nd Ctrough, arithmetic mean ± SD” value ([4]; 10 mg)?
Answer: The value was 18.460 ng/mL.

Question: What about the “6th Ctrough, arithmetic mean ± SD” value ([4]; 10 mg) of the same compound?
Answer: The value was 13.710 ng/mL.

Question: What about the “AUCtau, arithmetic mean ± SD” value ([4]; 10 mg, (first dose)) of the same compound?
Answer: The value was 476.937 ng·days/mL.

Question: What about the “AUCtau/dose, Arithmetic mean ± standard deviation” value ([4]; 10 mg, (first dose)) of the same compound?
Answer: The value was 0.04291 ± 47.6 ng·days/mL/µg.

Question: And the “Steady-state contrast: mean Ctrough over week 3 to 6 against week 2” value ([4]; 10 mg, Helmert's approach)?
Answer: Its value is −3.616.

Question: And the “Lambda_Z, arithmetic mean ± SD” value ([4]; 10 mg, dose #6)?
Answer: The value was 0.2463 ± 0.09975 day⁻¹.

Question: And the “AUCtau/dose, Arithmetic mean ± standard deviation” value ([4]; 10 mg, dose #6 (N = 5))?
Answer: Its value is 0.05288 ± 52.4 ng·days/mL/µg.

Question: What about the “Lambda_Z, Arithmetic mean ± standard deviation” value ([4]; 10 mg, dose #6 (N = 5)) of the same compound?
Answer: Its value is 0.231 ± 41.3* 1/d.

Question: And the “Kinetics over the 1 to 10 mg dose range, in words” value ([4]; dose-normalized Cmax and AUCtau)?
Answer: Its value is “follows linear kinetics”.

Question: And the CL/F ([4]; sc, 1 mg)?
Answer: The CL/F was 11.9 mL/min.

Question: And the AUC(0-t) ([4]; sc, 1 mg, AUClast, Arithmetic mean ± standard deviation, dose #6)?
Answer: Its AUC(0-t) is 1310 ng·h/mL.

Question: And the AUC(0-t) ([4]; sc, 1 mg, AUClast, arithmetic mean ± SD, dose #6)?
Answer: Its AUC(0-t) is 1360 ng·h/mL.

Question: And the AUC(0-t) ([4]; sc, 1 mg, AUCtau, arithmetic mean ± SD, (first dose))?
Answer: The AUC(0-t) was 845 ng·h/mL.

Question: What about the CL/F ([4]; sc, 5 mg) of the same compound?
Answer: The CL/F was 10.5 mL/min.

Question: What about the AUC(0-t) ([4]; sc, 5 mg, AUClast, Arithmetic mean ± standard deviation, dose #6) of the same compound?
Answer: Its AUC(0-t) is 8500 ng·h/mL.

Question: And the AUC(0-t) ([4]; sc, 5 mg, AUClast, arithmetic mean ± SD, dose #6)?
Answer: The AUC(0-t) was 9170 ng·h/mL.

Question: And the AUC(0-t) ([4]; sc, 5 mg, AUCtau, arithmetic mean ± SD, (first dose))?
Answer: The AUC(0-t) was 7210 ng·h/mL.

Question: And the CL/F ([4]; sc, 10 mg)?
Answer: The CL/F was 13.1 mL/min.

Question: And the AUC(0-t) ([4]; sc, 10 mg, AUClast, Arithmetic mean ± standard deviation, dose #6 (N = 5))?
Answer: The AUC(0-t) was 13800 ng·h/mL.

Question: And the AUC(0-t) ([4]; sc, 10 mg, AUCtau, arithmetic mean ± SD, (first dose))?
Answer: Its AUC(0-t) is 11400 ng·h/mL.

Question: And the half-life ([4]; sc, 10 mg, Half-life indicated by PK parameters, healthy volunteers, 6 weekly SC doses of 1, 5 or 10 mg)?
Answer: The half-life was 72 h.

Question: What about the Cmax ([4]; subcutaneous, 1 mg, arithmetic mean ± SD, (first dose)) of the same compound?
Answer: Its Cmax is 13.9 ± 11.2 ng/mL.

Question: And the Cmax ([4]; subcutaneous, 1 mg, arithmetic mean ± SD, dose #6)?
Answer: The Cmax was 24.2 ± 9.22 ng/mL.

Question: And the Cmax ([4]; subcutaneous, 1 mg, geometric mean (geometric coefficient of variation %), (first dose))?
Answer: Its Cmax is 12.3 ± 146 ng/mL.

Question: And the Tmax ([4]; subcutaneous, 1 mg, tmax at dose 1 and 6, 1 mg)?
Answer: Its Tmax is ~24 h.

Question: What about the Tmax ([4]; subcutaneous, 1 mg, tmax, median, (first dose)) of the same compound?
Answer: The Tmax was 24 h.

Question: What about the Tmax ([4]; subcutaneous, 1 mg, tmax, median, dose #6) of the same compound?
Answer: Its Tmax is 21.6 h.

Question: What about the Vd/F ([4]; subcutaneous, 5 mg) of the same compound?
Answer: The Vd/F was 50.2 ± 61 L.

Question: And the Cmax ([4]; subcutaneous, 5 mg, arithmetic mean ± SD, (first dose))?
Answer: The Cmax was 94.1 ± 50.5 ng/mL.

Question: And the Cmax ([4]; subcutaneous, 5 mg, arithmetic mean ± SD, dose #6)?
Answer: The Cmax was 125 ± 72.1 ng/mL.

Question: And the Cmax ([4]; subcutaneous, 5 mg, geometric mean (geometric coefficient of variation %), (first dose))?
Answer: Its Cmax is 84.1 ± 55.1 ng/mL.

Question: And the Cmax ([4]; subcutaneous, 5 mg, geometric mean (geometric coefficient of variation %), dose #6)?
Answer: Its Cmax is 108 ± 64.6 ng/mL.

Question: What about the half-life ([4]; subcutaneous, 5 mg, Half life, 5 mg, following dose #6) of the same compound?
Answer: Its half-life is 72.7 ± 23 h.

Question: What about the half-life ([4]; subcutaneous, 5 mg, t1/2, lower section headed Arithmetic mean ± standard deviation, dose #6 (N = 4)) of the same compound?
Answer: The half-life was 69.8 h.

Question: And the Tmax ([4]; subcutaneous, 5 mg, tmax at dose 1 and 6, 5 mg)?
Answer: Its Tmax is ~24 h.

Question: What about the Tmax ([4]; subcutaneous, 5 mg, tmax, median, (first dose)) of the same compound?
Answer: The Tmax was 24 h.

Question: And the Tmax ([4]; subcutaneous, 5 mg, tmax, median, dose #6)?
Answer: The Tmax was 24 h.

Question: And the Vd/F ([4]; subcutaneous, 10 mg)?
Answer: The Vd/F was 81.9 ± 98.6 L.

Question: What about the Cmax ([4]; subcutaneous, 10 mg, arithmetic mean ± SD, (first dose)) of the same compound?
Answer: The Cmax was 137 ± 55 ng/mL.

Question: And the Cmax ([4]; subcutaneous, 10 mg, arithmetic mean ± SD, dose #6)?
Answer: Its Cmax is 182 ± 97.6 ng/mL.

Question: And the Cmax ([4]; subcutaneous, 10 mg, geometric mean (geometric coefficient of variation %), (first dose))?
Answer: Its Cmax is 128 ± 39.9 ng/mL.

Question: And the half-life ([4]; subcutaneous, 10 mg, Half life, 10 mg, following dose #6)?
Answer: Its half-life is 76.3 ± 27.6 h.

Question: And the half-life ([4]; subcutaneous, 10 mg, t1/2, lower section headed Arithmetic mean ± standard deviation, dose #6 (N = 5))?
Answer: Its half-life is 72 h.

Question: What about the Tmax ([4]; subcutaneous, 10 mg, tmax at dose 1 and 6, 10 mg) of the same compound?
Answer: Its Tmax is ~48 h.

Question: What about the Tmax ([4]; subcutaneous, 10 mg, tmax, median, (first dose)) of the same compound?
Answer: The Tmax was 45.6 h.

Question: And the Tmax ([4]; subcutaneous, 10 mg, tmax, median, dose #6)?
Answer: Its Tmax is 45.6 h.
